This is an account of results in patent US20260041640A1 (INCYCLIX BIO, LLC, priority 2023, published 2026).

Series [1] addresses T1, CDK2/cyclin E (Homo sapiens, UniProt P24941). The settings on record: intracellular; read-out: Nanobret IC50 CDK2/cyclin E; cited from earlier work.
The conditions of series [2]: cited from earlier work.
In series [3] the target is T1, CDK2/cyclin E. The settings on record: biochemical; read-out: Target IC50 CDK2/cyclin E; cited from earlier work.
For series [4] the following is noted: phase 1/2 trial, advanced solid tumors; cited from earlier work.
Another series relates to Ovcar-3. To be noted: BLU-222: based on Ovcar-3 cell cycle data (maximum G1 arrest); read-out: Cellular IC50; cited from earlier work.
A short description of series [5]: Published human plasma PK of BLU-222 and PF-07104091 (estimated from 2023 ASCO presentations). It is filed as in vivo. The settings on record: for Cmax to Cmin Ratio: estimated from published human results. An excerpt: This is under the assumption that off-target toxicity is driven by Cmax and efficacy is driven by time above therapeutic threshold (Table 5).
The next series has as its system CCNE1-amplified cancers. To be noted: BID dosing; cited from earlier work.
For series [6] the following is noted: treatment-related AEs, cited from earlier work.
Setting [7] is: plasma, 400 mg BID, estimated from published graph.
Where [8] appears, read: plasma, 600 mg BID, estimated from published graph.

Where two headings read alike, the source gives them in different places. Marks after values point to notes of the source that are not given here. Where only a bound is given, the exact number is not on record here.

Turning to `FC(F)Oc1cc(Nc2cnc3cnn(CC4CCOCC4)c3n2)n[nH]1` [BLU-222], the IC50 was 0.0177 µM on CDK2/cyclin E [1], 0.0026 µM at CDK2/cyclin E [3] and > 0.1 µM in the series with Ovcar-3. In addition, the results for the C12 hr in series [2] (setting [7]) and in series [2] (setting [8]) were 100* ng/mL and 120* ng/mL, respectively. Also, the Cmax in series [2] (setting [7]) was 927* ng/mL; in series [2] (setting [8]), 2639* ng/mL. For the same compound, the “ocular adverse events (AEs) affecting vision, incidence” value in series [4] was 19%. The “ocular adverse events (AEs) affecting vision, patients” value in series [4] is 5 patients. The “Cmax to Cmin Ratio” value in series [5] (400 mg BID) was 9.3; in series [5] (600 mg BID), 22. Moreover, the “In Vivo efficacy (efficacious dose)” value in the series on CCNE1-amplified cancers is 100 mg/kg mg/kg BID.
For `COCc1cc(C(=O)Nc2cc([C@H]3CC[C@@H](OC(=O)NC(C)C)C3)[nH]n2)n(C)n1` [PF-07104091], in series [2] (human, plasma), the t1/2 is 2 to 3 h. The “MTD and monotherapy recommended dose for expansion (RDE)” value in series [2] (human) was 300 mg BID. For the same compound, in series [2] (plasma, 300 mg BID, estimated from 2023 ASCO presentation), the Cmax is given as ~2000* ng/mL. In series [6] (Grade 3), the anemia is listed as 8.6%, the diarrhea was 8.6%, the fatigue is reported as 20.0% and the nausea was 14.3%. Moreover, the vomiting in series [6] (Grade 3) is on record as 2.9%. Besides, in series [6] (all grades), the anemia was 45.7%, the diarrhea is reported as 48.6%, the fatigue was 45.7% and the nausea is recorded as 77.1%. Further, the vomiting in series [6] (all grades) is 48.6%. Further, the IC50 in the series with Ovcar-3 is < 0.1 µM. The “C12 hr (Cmin at 12 hours)” value in series [5] (300 mg BID, estimated using Cmax of 2000 ng/mL and t1/2 of 2-3 hours) is given as ~31-125* ng/mL. Also, the concentration at 12 h in series [5] (human, 300 mg, read-out: C12 hr (Cmin at 12 hours)) was 31.2 to 125 ng/mL. For the same compound, in the series with CCNE1-amplified cancers, the “In Vivo efficacy (efficacious dose)” value is reported as ≥ 100 mg/kg BID.
